{
  "source": "ChEMBL document CHEMBL1132905",
  "about": "“Synthesis of glycosylated polyethylenimine with reduced toxicity and high transfecting efficiency” (Bioorg Med Chem Lett, 2000)",
  "assay": "Lethal dose against HeLa cells, from a human cervix epitheloid carcinoma",
  "format": "toxicity, cell-based",
  "details": "read-out: LD50 (the source's name)",
  "data": [
    {"smiles": "CCN(CCNC)CCNC[C@H](O)[C@@H](O)[C@H](O[C@@H]1O[C@H](CO)C(O)[C@H](O)[C@H]1O)[C@H](O)CO", "note": "(stereo partly specified) [GLYCOSYLATED PEI]", "values": [
      {"measurement": "CC50", "result": "> 300", "unit": "µM"}
    ]}
  ]
}
